Patent US4026888A, “Certain derivatives of particular 3-thiolated cephalosporins” (priority 1976, dated 1977)
≈ marks a conversion by molar mass, not a printed value. Like-named read-outs stand apart in the source and are kept apart here.

Assays:
[1] = Paper chromatography of rat urine for antibiotically active metabolites; assay type: in vivo; conditions: IM; rat urine 0-2 and 2-4 hours
Method: Paper chromatograms were run on rat urine collected between 0 and 2 and between 2 and 4 hours following IM administration of BL-S1055 and 640, for the detection of antibiotically active metabolites using descending chromatography with system No. 9 (butyl acetate:n-butanol:glacial acetic acid:H2 O= 80:15:40:24).

[2] = Urinary recovery after IM administration to rats; assay type: in vivo; conditions: rat, urine, read-out: Urinary Recovery, Percentage of Administered Dose Recovered; for dose excreted at 6 h: 0-6 hr
Method: Urinary Recovery After IM
Administration of 50 and 10 mg./kg. to Rats
The compounds were prepared in 0.01% phosphate buffer. BL-S640 was used as
Urinary Recovery after IM
Administration of 50 mg./kg. to Rats
(§1) The compounds were prepared in 0.01% phosphate buffer.

[3] = tested on: Ent. cloacae A9659; assay: Antibiotic activity in nutrient broth (MIC); assay type: cell-based; conditions: Enterobacter cloacae, A9659, inoculum 10^-4; derivatives adjusted for BL-S640 content; read-out: MIC
Description: (§2) Antibiotic Activity In Nutrient Broth
(§3) ** Dilution of overnight broth culture.
(§4) Antibiotic Spectrum Nutrient Broth
(§5) Antibiotic Spectrum in Nutrient Broth

[4] = tested on: Ps. aeruginosa A9843A; assay: Antibiotic activity in nutrient broth (MIC); assay type: cell-based; conditions: Pseudomonas aeruginosa
Description: as §2, §3, §4, §5

[5] = tested on: Ent. cloacae A9657; assay: Antibiotic activity in nutrient broth (MIC); assay type: cell-based; conditions: Enterobacter cloacae, A9657, inoculum 10^-4; derivatives adjusted for BL-S640 content; read-out: MIC
Description: as §2, §3, §4, §5

[6] = tested on: Pr. mirabilis A9900; assay: Antibiotic activity in nutrient broth (MIC); assay type: cell-based; conditions: Proteus mirabilis, inoculum 10^-4, derivatives adjusted for BL-S640 content
Description: as §2, §3, §4, §5

[7] = tested on: Pr. morganii A15153; assay: Antibiotic activity in nutrient broth (MIC); assay type: cell-based; conditions: Morganella morganii, A15153, inoculum 10^-4; derivatives adjusted for BL-S640 content; read-out: MIC
Description: as §2, §3, §4, §5

[8] = tested on: E. coli A9675; assay: Antibiotic activity in nutrient broth (MIC); assay type: cell-based; conditions: Escherichia coli, A9675, inoculum 10^-4; derivatives adjusted for BL-S640 content; read-out: MIC
Description: as §2, §3, §4, §5

[9] = tested on: K. pneumoniae A9977; assay: Antibiotic activity in nutrient broth (MIC); assay type: cell-based; conditions: Klebsiella pneumoniae, inoculum 10^-4, derivatives adjusted for BL-S640 content, read-out: MIC
Description: as §2, §3, §4, §5

[10] = tested on: S. aureus BX1633 A9606; assay: Antibiotic activity in nutrient broth (MIC); assay type: cell-based; conditions: Staphylococcus aureus, derivatives adjusted for BL-S640 content, read-out: MIC
Description: as §2, §3, §4, §5

[11] = tested on: S. aureus Smith A9537; assay: Antibiotic activity in nutrient broth (MIC); assay type: cell-based; conditions: Staphylococcus aureus, SMITHA9537, inoculum 10^-4, derivatives adjusted for BL-S640 content, read-out: MIC
Description: as §2, §3, §4, §5

[12] = tested on: P. mirabilis A9900; assay: IM PD50 in mice; assay type: in vivo; conditions: Proteus mirabilis
Description: Comparative IM PD50 Values of
(§6) BL-S640 Derivatives in Mice

[13] = tested on: P. mirabilis A9900; assay: Oral PD50 in mice; assay type: in vivo; conditions: mice treated at 1 and 3.5 hours post-challenge
[14] = tested on: Str. pyogenes A9604; assay: Antibiotic activity in nutrient broth (MIC); assay type: cell-based; conditions: Streptococcus pyogenes, A9604, inoculum 10^-3; 45% AAB + 5% serum + 50% broth; derivatives adjusted for BL-S640 content; read-out: MIC
Description: as §2
(§7) * 45% AAB+ 5% serum+ 50% broth listed above.
as §3, §4
(§8) * 45% AAB + 5% serum + 50% broth
as §5
(§9) *45% AAB + 5% serum + 50% broth listed above.

[15] = tested on: Str. pneumoniae A9585; assay: Antibiotic activity in nutrient broth (MIC); assay type: cell-based; conditions: Streptococcus pneumoniae, A9585, inoculum 10^-3 dilution of overnight broth culture; 45% AAB + 5% serum + 50% broth; derivatives adjusted for BL-S640 content
Description: as §2, §7, §3, §4, §8, §5, §9

[16] = 0.2 and 1.0 mg./ml. in water
Method: Paper strip bioautographs were run in the following manner. Samples were dissolved at a concentration of 500 γ/ml. in 0.1M pH 7 phosphate buffer and pH 7 pooled human serum at 500 γ/ml. A 10 μl sample of BL-S640 and the above product were spotted on a 1/2 inch strip of What. No. 1 paper and developed at 27° for 16 hours in a butyl acetate 80, n-butanol 15, acetic acid 40, and water 24 system. The strips were air-dried, and placed on an agar plate seeded with B. subtilis A.T.C.C.
Samples were chromatographed on a μ Bondapak C18 (Waters Associates) column using a 0.01M sodium acetate pH 4/-methanol 8/2 mobile phase at a flow rate of 0.52 ml./min. Detection was by UV at 354 μm. Samples were dissolved at a concentration of 1 mg./ml. in the mobile phase, 2 μ were injected and BL-S640 was eluted at 18 min. and the aldehyde at 6 min. The quantitation of BL-S640 and 5-formylfuransulfonic acid were made using p-toluene-sulfonic acid as an internal standard.

[17] = Mouse blood levels after oral administration; assay type: in vivo; conditions: mouse, blood, po, 100 mg/kg, Example 2, PO 100 mg./kg., Tween-CMC, 16 or 32 mice, read-out: Blood Levels
Method: Mouse Blood Levels After Oral
Administration Of 100 mg./kg. Body Weight
The compounds were prepared in
Tween - carboxymethylcellulose
and 8 mice were used for each
Mouse Blood Levels After PO
Administration of 100 mg./kg. Body Weight
The compounds were prepared in Tween-CMC. BL-S640
The compounds were prepared in Tween-CMC. Values are the average of two

[18] = Mouse blood levels after intramuscular administration; assay type: in vivo; conditions: mouse, blood, im, 10 mg/kg, Example 2, IM 10 mg./kg., 0.01% phosphate buffer, 16 or 32 mice, read-out: Blood Levels
Method: Mouse Blood Levels After Intramuscular Administration
of 10 mg./kg. Body Weight
The compounds were dissolved in 0.01% phosphate buffer.
Mouse Blood Levels After IM
Administration of 10 mg./kg. Body Weight
The compounds were prepared in 0.01% phosphate
as §1

[19] = tested on: S. pyogenes A9604; assay: Oral PD50 in mice; assay type: in vivo; conditions: Streptococcus pyogenes, mice treated at 1 and 3.5 hours post-challenge
Method: (§10) Comparative Oral PD50 Values of
as §6
(§11) *Mice were treated at 1 and 3.5 hours post-challenge.

[20] = tested on: P. mirabilis A9707; assay: Oral PD50 in mice; assay type: in vivo; conditions: Proteus mirabilis, mice treated at 1 and 3.5 hours post-challenge
Method: as §10, §6, §11

[21] = tested on: K. pneumoniae A9977; assay: Oral PD50 in mice; assay type: in vivo; conditions: Klebsiella pneumoniae, A9977, po, 3.5 h, read-out: PD50
Method: as §10, §6, §11

[22] = tested on: E. coli A15119; assay: Oral PD50 in mice; assay type: in vivo; conditions: Escherichia coli, A15119, po, 3.5 h, read-out: PD50
Method: as §10, §6, §11

## O=C(O)COc1ccccc1C1N[C@H](c2ccc(O)cc2)C(=O)N1[C@@H]1C(=O)N2C(C(=O)O)=C(CSc3cnn[nH]3)CS[C@H]12 (stereo partly shown) [BL-S1048]
[1]
  Hydrolysis to the parent compound (BL-S640): complete hydrolysis
[2]; 10 mg/kg, IM 10 mg./kg.
  dose excreted at 6 h: 21.7%
[2]; 10 mg/kg, IM 10 mg./kg., 0-24 hr
  dose excreted at 24 h: 23.7%
[2]; 10 mg/kg, IM 10 mg./kg., 6-24 hr
  dose excreted at 24 h: 2%
[2]; 50 mg/kg, IM 50 mg./kg.
  dose excreted at 6 h: 32.3%
[2]; 50 mg/kg, IM 50 mg./kg., 0-24 hr
  dose excreted at 24 h: 34.7%
[2]; 50 mg/kg, IM 50 mg./kg., 6-24 hr
  dose excreted at 24 h: 2.4%
[3]
  MIC: 32 µg/mL (≈ 51.2 µM)
[4]
  MIC: > 125 µg/mL
[5]
  MIC: 0.5 µg/mL (≈ 0.8 µM)
[6]
  MIC: 0.5 µg/mL (≈ 0.8 µM)
[7]
  MIC: 32 µg/mL (≈ 51.2 µM)
[8]
  MIC: 2 µg/mL (≈ 3.2 µM)
[9]
  MIC: 0.5 µg/mL (≈ 0.8 µM)
[10]; BX1633A9606, inoculum 10^-2
  MIC: 2 µg/mL (≈ 3.2 µM)
[10]; BX1633A9606, inoculum 10^-3
  MIC: 0.25 µg/mL (≈ 0.4 µM)
[11]; + 50% serum
  MIC: 2 µg/mL
[11]; nutrient broth
  MIC: 0.13 µg/mL (≈ 0.208 µM)
[12]
  ED50: 1.6 mg/kg
[13]; Proteus mirabilis, A9900, po, 3.5 h, read-out: PD50, oral
  ED50: 4.7 mg/kg
[13]; oral
  PD50: 3.6 mg./kg./treatment
[14]
  MIC: 0.03 µg/mL
[15]
  MIC: 0.06 µg/mL
[16]
  Form in solution by paper strip and liquid chromatography: BL-S640 completely free of the aldehyde
[17]; 0.5 hr
  concentration at 0.5 h: 46500 ng/mL
[17]; 1 hr
  concentration at 1 h: 44600 ng/mL
[17]; 2 hr
  concentration at 2 h: 28100 ng/mL
[17]; 3.5 hr
  concentration at 3.5 h: 12800 ng/mL
[18]; 0.25 hr
  concentration at 0.25 h: 14800 ng/mL
[18]; 0.5 hr
  concentration at 0.5 h: 14100 ng/mL
[18]; 1 hr
  concentration at 1 h: 10300 ng/mL
[18]; 1.5 hr
  concentration at 1.5 h: 7000 ng/mL
[19]
  ED50: 0.2 mg/kg
[20]
  ED50: 2.4 mg/kg
[21]
  ED50: 0.7 mg/kg
[22]; oral, mice treated at 1 and 3.5 hours post-challenge
  ED50: 3.1 mg/kg
[22]
  ED50: 1.6 mg/kg
